{"source": "patent US7803824B2", "about": "“Use of inhibitors of Jun N-terminal kinases to treat glaucoma” (Alcon, Inc., priority 2004, dated 2010)", "system": "adult rat retinal ganglion cells (RGC)", "assay": "Cultured adult rat RGC survival under cytotoxic insults (Example 4)", "assay_type": "cell-based", "conditions": "30 min pre-treatment, then 100 μM glutamate for 3 days", "description": "Adult Sprague-Dawley rats were euthanized by CO2 asphyxiation. Their eyes were enucleated and the retinas isolated. Retinal cells were treated with of papain solution for 25 min at 37° C., then washed 3 times with 5 mL RGC culture medium (Neurobasal medium with various nutrient supplements+1% fetal calf serum). Retinal cells were dispersed by trituration. Cell suspension was placed onto poly-D-lysine- and laminin-coated 8-well chambered culture slides. The cells were then cultured in 95% air/5% CO2 at 37° C.\nFor glutamate-induced toxicity studies, cells were pre-treated with vehicle or the indicated compounds for 30 minutes, followed by 100 μM glutamate for 3 days.\nFor trophic factor withdrawal studies, three trophic factors, basic fibroblast growth factor, brain-derived neurotrophic factor, and ciliary neurotrophic factor, were removed from the culture medium. Cells were cultured in this medium with the indicated compounds for 3 days.\nAt the end of the incubation period, the cells were fixed and labeled for Thy-1, a RGC marker, by immunocytochemistry. Cell survival was quantified by manually counting Thy-1-positive healthy cells in each well."}
{"smiles": "C[C@]12N[C@H](Cc3ccccc31)c1ccccc12", "note": "[MK801]", "values": [{"measurement": "RGC survival, glutamate-induced toxicity (Thy-1-positive healthy cells)", "result": "prevented"}]}
